Like-named read-outs stand apart in the source and are kept apart here. Numbered stars: 1 amine (or outer) side, 2 acyl side, 3 side chain; on linkers, the order of the positions; unused ones are H or OH. Bridge positions count the residues as written; N and C are the ends. Side chains are listed from the residue outwards. Peptide text beside a SMILES is read from it. * marks the point of attachment. C20 diacid = O=C(O)CCCCCCCCCCCCCCCCCCC(=O)*; γGlu = O=C(O)[C@H](CCC(=O)[*:2])N[*:1]
Experiments:
[1] = biological target: T1, rat calcitonin receptor (Rattus norvegicus, UniProt P32214); assay: ASSAY (VIII) binding to the rat calcitonin receptor; details: Table 7, read-out: rCTR bind IC50
T1 construct: expressed in transfected cells; host or cells: BHK tk'ts 13 (transient, FuGENE 6), membranes
T1 sequence (P32214 25-479 isoform P32214-2 limits assumed): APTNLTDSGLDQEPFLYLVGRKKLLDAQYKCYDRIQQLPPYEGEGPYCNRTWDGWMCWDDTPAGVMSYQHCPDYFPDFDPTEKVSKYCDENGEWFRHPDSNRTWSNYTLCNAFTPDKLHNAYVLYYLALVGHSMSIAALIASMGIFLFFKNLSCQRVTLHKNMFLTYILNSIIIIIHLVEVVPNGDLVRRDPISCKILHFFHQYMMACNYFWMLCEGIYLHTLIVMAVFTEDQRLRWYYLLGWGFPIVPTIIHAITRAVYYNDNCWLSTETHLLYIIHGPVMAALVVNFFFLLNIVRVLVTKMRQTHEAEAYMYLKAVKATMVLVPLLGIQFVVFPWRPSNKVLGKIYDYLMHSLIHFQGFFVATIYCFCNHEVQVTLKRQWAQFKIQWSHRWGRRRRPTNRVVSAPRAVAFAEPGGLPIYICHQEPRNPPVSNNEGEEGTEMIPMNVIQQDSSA
Method in brief: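 Cell membranes for binding came from BHK tk′ts 13 cells harvested approximately 48 hours after transient transfection with the rat receptor.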

[2] = biological target: T2, rat amylin receptor (rat calcitonin receptor + rat RAMP 3) (Rattus norvegicus, UniProt P32214+Q9JJ73); assay: ASSAY (VI) binding to the rat amylin receptor
T2 construct: expressed in transfected cells; host or cells: BHK tk'ts 13 (transient, FuGENE 6), membranes
T2 sequence (P32214 25-479 isoform P32214-2 limits assumed): T1 sequence (P32214 25-479 isoform P32214-2 limits assumed)
T2 sequence (Q9JJ73 23-147 partner): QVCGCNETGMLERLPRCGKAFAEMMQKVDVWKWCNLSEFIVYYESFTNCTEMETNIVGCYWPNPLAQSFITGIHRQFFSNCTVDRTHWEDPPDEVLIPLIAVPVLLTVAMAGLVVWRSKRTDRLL
Method in brief: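 Membranes for this rat amylin receptor binding assay came from BHK tk′ts 13 cells. The cells were transiently transfected with rat calcitonin receptor using the FuGENE® 6 reagent from Roche, as the manufacturer recommends. The cells were collected approximately 48 hours after transfection, and membranes were then prepared.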

[3] = biological target: T3, human amylin receptor (membranes from Amylin 3(a)/CRE-luc cells) (Homo sapiens, UniProt O60896+P30988); assay: ASSAY (V) binding to the human amylin receptor (SPA, 125I-rat amylin);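 further: competition binding of cell membranes (35 ng/µL) mixed with SPA beads in 384-well plates at 40 µL total volume, read by scintillation counting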
T3 construct: expressed in transfected cells
T3 sequence (P30988 25-474): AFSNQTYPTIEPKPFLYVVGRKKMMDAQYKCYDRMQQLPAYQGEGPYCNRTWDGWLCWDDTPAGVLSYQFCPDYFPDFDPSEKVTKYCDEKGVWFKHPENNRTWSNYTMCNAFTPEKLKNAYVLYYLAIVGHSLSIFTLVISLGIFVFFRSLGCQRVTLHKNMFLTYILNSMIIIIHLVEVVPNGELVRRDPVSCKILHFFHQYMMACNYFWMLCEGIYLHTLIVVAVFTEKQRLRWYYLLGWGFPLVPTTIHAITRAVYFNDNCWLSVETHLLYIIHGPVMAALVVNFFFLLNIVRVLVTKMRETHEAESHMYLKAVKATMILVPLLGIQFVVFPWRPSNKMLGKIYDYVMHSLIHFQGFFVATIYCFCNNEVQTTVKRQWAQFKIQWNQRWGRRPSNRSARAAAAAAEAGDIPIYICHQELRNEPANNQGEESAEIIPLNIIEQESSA
T3 sequence (O60896 24-148 partner): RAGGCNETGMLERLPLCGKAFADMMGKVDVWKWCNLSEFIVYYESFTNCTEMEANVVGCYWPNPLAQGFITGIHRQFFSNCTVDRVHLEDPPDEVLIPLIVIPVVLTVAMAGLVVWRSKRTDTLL

[4] = biological target: T4, human amylin 3(a) receptor (human calcitonin receptor + RAMP-3) in BHK570 cells (Homo sapiens, UniProt O60896+P30988); assay: ASSAY (II)a functional assay, human amylin receptor (CRE luciferase); format: cell-based
T4 construct: expressed in transfected cells
Method in brief: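 Receptor activation is measured as cAMP-driven CRE-luciferase expression in BHK cells expressing the calcitonin receptor, with RAMP-3 co-expressed to form the amylin 3(a) receptor. Cells are exposed to compound for 3 hours at 37° C, and luciferase is then quantified by luminescence.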

[5] = ASSAY (IV) determination of solubility; format: physicochemical
Method in brief: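 Samples of polypeptide, prepared from a water stock at […] and diluted 1:1 into 100 mM buffers spanning pH 3.0 to 8.0, stood 18 hours at room temperature. Polypeptide concentration was then determined by UPLC following centrifugation.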

CC[C@H](C)[C@H](NC(=O)[C@H](C)NC(=O)CNC(=O)[C@H](Cc1ccccc1)NC(=O)[C@H](CC(N)=O)NC(=O)[C@@H]1CCCN1C(=O)[C@H](CO)NC(=O)[C@H](CO)NC(=O)[C@H](Cc1c[nH]cn1)NC(=O)[C@H](CCCNC(=N)N)NC(=O)[C@H](CC(C)C)NC(=O)[C@H](Cc1ccccc1)NC(=O)[C@H](C)NC(=O)[C@H](C)NC(=O)[C@H](CC(C)C)NC(=O)[C@H](CCCNC(=N)N)NC(=O)[C@H](CCC(N)=O)NC(=O)[C@@H](NC(=O)[C@H](C)NC(=O)[C@@H]1CSSC[C@H](NC(=O)[C@@H](N)CCCCNC(=O)CC[C@H](NC(=O)CCCCCCCCCCCCCCCCCCC(=O)O)C(=O)O)C(=O)N[C@@H](CC(N)=O)C(=O)N[C@@H]([C@@H](C)O)C(=O)N[C@@H](C)C(=O)N[C@@H]([C@@H](C)O)C(=O)N1)[C@@H](C)O)C(=O)N1CCC[C@H]1C(=O)N[C@@H](CO)C(=O)N[C@@H](CO)C(=O)N[C@H](C(=O)N[C@@H](CC(N)=O)C(=O)N[C@H](C(=O)NCC(=O)N1CCC[C@H]1C(=O)N[C@@H](CC(N)=O)C(=O)N[C@H](C(=O)N[C@@H](Cc1ccc(O)cc1)C(N)=O)[C@@H](C)O)C(C)C)[C@@H](C)O [Example 94] (H-K([γGlu-C20 diacid])CNTATCATQRLAAFLRHSSPNFGAIPSSTNVGPNTY-NH2; disulfide 2-7 (inferred))
IC50 [1]: 111000 pM
IC50 ([2]; Table 7, binding to rat amylin receptor, read-out: rAmylin-R bind IC50): 397 pM
Ratio rCT/rAmylin binding ([2]; Table 7, rat binding selectivity, rCTR IC50 / rAmylin-R IC50): 280.1
Ratio rCT/rAmylin binding ([2]; Table 7a (preferred compounds), rat binding selectivity, rCTR IC50 / rAmylin-R IC50): 280.1
Ratio rCT/rAmylin binding ([2]; ratio of rCTR bind IC50 to rAmylin-R bind IC50): 280.1
IC50 ([3]; Table 4, read-out: hAmylin-R bind IC50): 148 pM
Ratio hCT/hAmylin binding ([3]; Table 5, selectivity, hCTR bind IC50 / hAmylin-R bind IC50): 46.3
Ratio hCT/hAmylin binding ([3]; Table 5a, selectivity, hCTR bind IC50 / hAmylin-R bind IC50): 46.3
Ratio hCT/hAmylin binding ([3]; Table 5b, selectivity, hCTR bind IC50 / hAmylin-R bind IC50): 46.3
Ratio hCT/hAmylin binding ([3]; Table 5c, selectivity, hCTR bind IC50 / hAmylin-R bind IC50): 46.3
Ratio hCT/hAmylin binding ([3]; Table 7, human binding selectivity, included for comparison): 46.3
Ratio hCT/hAmylin binding ([3]; Table 7a (preferred compounds), human binding selectivity, included for comparison): 46.3
Ratio hCT/hAmylin binding ([3]; ratio of human calcitonin receptor binding IC50 to human amylin receptor binding IC50): 46.3
Ratio hCT/hAmylin funct. ([4]; hCTR funct. EC50 / hAmylin-R funct. EC50): 4.5
Ratio hCT/hAmylin funct. ([4]; hCTR funct. EC50 divided by hAmylin-R funct. EC50): 4.5
EC50 ([4]; human amylin receptor functional potency, assay (II), read-out: hAmylin-R funct. EC50): 70 pM
Ratio hCT/hAmylin funct. ([4]; human functional selectivity: hCTR funct. EC50 / hAmylin-R funct. EC50): 4.5
solubility at 18 h ([5]; bistrispropane buffer, pH 6.5, read-out: Solubility pH 6.5 Concentration): ≥ 200 µM
solubility at 18 h ([5]; bistrispropane buffer, pH 7.5, read-out: Solubility pH 7.5 Concentration): ≥ 200 µM
solubility at 18 h ([5]; bistrispropane buffer, pH 6.0, read-out: Solubility pH 6.0 Concentration): ≥ 200 µM
solubility at 18 h ([5]; bistrispropane buffer, pH 7.0, read-out: Solubility pH 7.0 Concentration): ≥ 200 µM
solubility at 18 h ([5]; bistrispropane buffer, pH 8.0, read-out: Solubility pH 8.0 Concentration): ≥ 200 µM
solubility at 18 h ([5]; glycylglycine buffer, pH 3.0, read-out: Solubility pH 3.0 Concentration): ≥ 200 µM
solubility at 18 h ([5]; glycylglycine buffer, pH 4.0, read-out: Solubility pH 4.0 Concentration): ≥ 200 µM
solubility at 18 h ([5]; glycylglycine buffer, pH 5.0, read-out: Solubility pH 5.0 Concentration): ≥ 200 µM
